Test results from ChEMBL document CHEMBL3352322, “Synthesis and biological evaluation of 3-phenethylazetidine derivatives as triple reuptake inhibitors” (Bioorg Med Chem Lett, 2014).

Assays:
[1] = target: Voltage-gated inwardly rectifying potassium channel KCNH2 (Homo sapiens, UniProt Q12809); test: Inhibition of human ERG expressed in CHO-K1 cells by patch-clamp electrophysiology method; format: cell-based
[2] = target: CYP2C19 (Homo sapiens, UniProt P33261); test: in vitro; settings: recombinant CYP2C19
[3] = target: T1, Sodium-dependent noradrenaline transporter (Homo sapiens, UniProt P23975)
[4] = target: T1, Sodium-dependent noradrenaline transporter; test: Ratio of venlafaxine IC50 to compound IC50 for norepinephrine reuptake at human NET expressed in HEK293 cells at 0.1 uM after 15 mins by fluorescence neurotransmitter transporter assay; format: cell-based
[5] = target: Cytochrome P450 2D6 (Homo sapiens, UniProt P10635)
[6] = target: T2, Sodium-dependent serotonin transporter (Homo sapiens, UniProt P31645); settings: HEK293, at 1 µM
Target sequence in this assay (P31645 whole entry, looked up): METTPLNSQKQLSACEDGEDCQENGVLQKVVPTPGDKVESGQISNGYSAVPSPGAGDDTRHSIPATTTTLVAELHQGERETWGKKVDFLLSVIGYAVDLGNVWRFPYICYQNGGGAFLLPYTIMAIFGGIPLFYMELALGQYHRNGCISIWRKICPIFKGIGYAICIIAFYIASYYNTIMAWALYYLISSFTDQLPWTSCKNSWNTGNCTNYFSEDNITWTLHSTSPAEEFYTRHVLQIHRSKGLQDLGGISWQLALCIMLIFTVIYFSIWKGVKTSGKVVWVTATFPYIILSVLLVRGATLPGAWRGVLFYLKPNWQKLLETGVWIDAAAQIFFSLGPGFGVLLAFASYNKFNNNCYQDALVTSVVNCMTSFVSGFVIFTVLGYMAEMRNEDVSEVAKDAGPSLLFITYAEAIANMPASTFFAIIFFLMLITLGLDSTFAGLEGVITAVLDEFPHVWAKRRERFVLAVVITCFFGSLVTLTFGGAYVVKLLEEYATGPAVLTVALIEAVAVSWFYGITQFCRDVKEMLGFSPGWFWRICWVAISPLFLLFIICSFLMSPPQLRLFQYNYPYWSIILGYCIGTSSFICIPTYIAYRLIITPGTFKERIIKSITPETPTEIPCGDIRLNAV

[7] = target: T1, Sodium-dependent noradrenaline transporter; test: Ratio of duloxetine IC50 to compound IC50 for norepinephrine reuptake at human NET expressed in HEK293 cells at 0.1 uM after 15 mins by fluorescence neurotransmitter transporter assay; format: cell-based
[8] = target: CYP2C9 (Homo sapiens, UniProt P11712); test: in vitro; settings: recombinant CYP2C9
[9] = target: CYP2D6 (Homo sapiens, UniProt P10635); test: in vitro; settings: recombinant CYP2D6
[10] = target: T2, Sodium-dependent serotonin transporter; test: Ratio of duloxetine IC50 to compound IC50 for serotonin reuptake at human SERT expressed in HEK293 cells at 0.1 uM after 15 mins by fluorescence neurotransmitter transporter assay; format: cell-based
Target sequence in this assay (P31645 whole entry, looked up): as above

[11] = Stability in human liver microsomes assessed as compound remaining at 1 uM after 30 mins by LC/MS analysis; format: ADME; settings: read-out: Stability
[12] = target: Cytochrome P450 3A4 (Homo sapiens, UniProt P08684)
[13] = target: T2, Sodium-dependent serotonin transporter; settings: HEK293, at 0.1 µM
Target sequence in this assay (P31645 whole entry, looked up): as above

[14] = target: Cytochrome P450 2C19 (Homo sapiens, UniProt P33261)
[15] = target: Sodium-dependent dopamine transporter (Homo sapiens, UniProt Q01959)
[16] = target: T3, CYP1A2 (Homo sapiens, UniProt P05177); test: in vitro; settings: recombinant CYP1A2
T3 sequence (P05177 whole entry): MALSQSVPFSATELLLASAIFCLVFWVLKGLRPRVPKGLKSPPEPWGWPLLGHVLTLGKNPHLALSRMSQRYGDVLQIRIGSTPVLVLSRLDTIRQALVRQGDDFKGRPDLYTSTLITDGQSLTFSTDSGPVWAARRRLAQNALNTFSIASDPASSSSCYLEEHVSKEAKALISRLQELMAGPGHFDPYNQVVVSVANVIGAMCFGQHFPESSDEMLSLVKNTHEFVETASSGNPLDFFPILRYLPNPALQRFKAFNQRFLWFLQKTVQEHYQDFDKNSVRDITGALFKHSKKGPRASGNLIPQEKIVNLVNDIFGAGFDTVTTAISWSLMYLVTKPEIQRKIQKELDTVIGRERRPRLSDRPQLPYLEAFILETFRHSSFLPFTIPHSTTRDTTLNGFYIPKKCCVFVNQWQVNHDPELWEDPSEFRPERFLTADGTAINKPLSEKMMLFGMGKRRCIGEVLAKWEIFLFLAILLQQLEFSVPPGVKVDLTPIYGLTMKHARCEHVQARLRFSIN

[17] = target: T2, Sodium-dependent serotonin transporter; format: cell-based, HEK293
Target sequence in this assay (P31645 whole entry): as the sequence (P31645 whole entry, looked up) above

[18] = target: Cytochrome P450 2C9 (Homo sapiens, UniProt P11712)
[19] = target: T4, Cytochrome P450 1A2 (Homo sapiens, UniProt P05177)
T4 sequence (P05177 whole entry): T3 sequence (P05177 whole entry)

[20] = target: CYP3A4 (Homo sapiens, UniProt P08684); test: in vitro; settings: recombinant CYP3A4
[21] = target: T2, Sodium-dependent serotonin transporter; test: Ratio of venlafaxine IC50 to compound IC50 for serotonin reuptake at human SERT expressed in HEK293 cells at 0.1 uM after 15 mins by fluorescence neurotransmitter transporter assay; format: cell-based
Target sequence in this assay (P31645 whole entry, looked up): as the sequence (P31645 whole entry, looked up) above

[22] = target: T2, Sodium-dependent serotonin transporter; settings: HEK293, at 10 µM
Target sequence in this assay (P31645 whole entry, looked up): as the sequence (P31645 whole entry, looked up) above

Chain of CYP2D6 (P10635 whole entry): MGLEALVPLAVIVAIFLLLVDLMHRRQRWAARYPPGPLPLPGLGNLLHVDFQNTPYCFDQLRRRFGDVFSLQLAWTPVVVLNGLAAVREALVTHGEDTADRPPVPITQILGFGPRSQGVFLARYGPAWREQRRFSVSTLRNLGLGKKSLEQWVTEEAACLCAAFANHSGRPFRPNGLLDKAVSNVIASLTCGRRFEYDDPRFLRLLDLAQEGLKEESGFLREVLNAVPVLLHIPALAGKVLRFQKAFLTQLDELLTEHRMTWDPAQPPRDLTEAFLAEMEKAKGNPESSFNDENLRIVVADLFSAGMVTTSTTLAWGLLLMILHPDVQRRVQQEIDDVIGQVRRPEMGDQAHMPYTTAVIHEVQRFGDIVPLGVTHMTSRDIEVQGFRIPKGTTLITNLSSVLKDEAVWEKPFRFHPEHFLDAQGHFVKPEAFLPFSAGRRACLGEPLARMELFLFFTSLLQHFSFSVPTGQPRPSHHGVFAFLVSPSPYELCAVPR
Chain of Cytochrome P450 2D6 (P10635 whole entry): as above
Chain of CYP3A4 (P08684 whole entry): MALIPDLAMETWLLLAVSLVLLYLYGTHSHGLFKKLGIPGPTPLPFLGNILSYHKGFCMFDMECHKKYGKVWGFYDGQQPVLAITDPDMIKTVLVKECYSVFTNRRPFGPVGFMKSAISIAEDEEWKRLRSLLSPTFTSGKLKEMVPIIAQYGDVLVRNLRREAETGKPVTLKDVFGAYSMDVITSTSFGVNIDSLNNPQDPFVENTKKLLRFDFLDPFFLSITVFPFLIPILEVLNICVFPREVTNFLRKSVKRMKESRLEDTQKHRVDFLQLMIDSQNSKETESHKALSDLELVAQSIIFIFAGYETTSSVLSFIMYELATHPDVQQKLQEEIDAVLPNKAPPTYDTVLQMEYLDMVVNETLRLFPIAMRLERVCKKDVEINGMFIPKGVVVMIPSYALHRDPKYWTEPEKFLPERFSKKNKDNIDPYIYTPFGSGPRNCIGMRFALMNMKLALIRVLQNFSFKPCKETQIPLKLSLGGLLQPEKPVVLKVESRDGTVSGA
Chain of Cytochrome P450 3A4 (P08684 whole entry): as above
Chain of CYP2C9 (P11712 whole entry): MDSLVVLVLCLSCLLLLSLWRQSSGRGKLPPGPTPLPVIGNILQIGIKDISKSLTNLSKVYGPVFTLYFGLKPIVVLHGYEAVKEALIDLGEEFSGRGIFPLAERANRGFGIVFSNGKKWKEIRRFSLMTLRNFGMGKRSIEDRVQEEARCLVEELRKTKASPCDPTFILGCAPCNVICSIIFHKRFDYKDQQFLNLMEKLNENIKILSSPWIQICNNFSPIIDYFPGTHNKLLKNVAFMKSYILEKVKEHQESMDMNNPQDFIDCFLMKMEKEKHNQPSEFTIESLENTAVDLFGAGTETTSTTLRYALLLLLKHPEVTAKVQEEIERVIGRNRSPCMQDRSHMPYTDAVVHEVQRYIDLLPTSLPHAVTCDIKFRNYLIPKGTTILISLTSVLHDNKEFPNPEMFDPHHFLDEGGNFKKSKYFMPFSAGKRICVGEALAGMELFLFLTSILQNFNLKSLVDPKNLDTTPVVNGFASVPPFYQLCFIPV
Chain of Cytochrome P450 2C9 (P11712 whole entry): as above
Chain of Cytochrome P450 2C19 (P33261 whole entry): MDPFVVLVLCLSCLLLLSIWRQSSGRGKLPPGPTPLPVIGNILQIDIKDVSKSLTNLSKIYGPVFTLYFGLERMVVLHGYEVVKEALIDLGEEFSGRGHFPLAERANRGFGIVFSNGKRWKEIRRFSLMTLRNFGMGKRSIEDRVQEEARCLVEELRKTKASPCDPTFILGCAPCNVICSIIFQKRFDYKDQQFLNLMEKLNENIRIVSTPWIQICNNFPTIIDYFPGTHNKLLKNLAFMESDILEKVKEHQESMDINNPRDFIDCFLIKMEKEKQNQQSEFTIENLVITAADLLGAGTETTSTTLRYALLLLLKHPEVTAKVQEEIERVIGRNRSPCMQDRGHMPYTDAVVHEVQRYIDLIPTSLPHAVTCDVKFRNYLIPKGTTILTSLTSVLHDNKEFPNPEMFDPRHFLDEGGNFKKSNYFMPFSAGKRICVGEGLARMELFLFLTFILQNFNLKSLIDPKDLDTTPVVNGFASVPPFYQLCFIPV
Chain of CYP2C19 (P33261 whole entry): as above

| Structure (SMILES) | inhibition at 10 µM [2] | IC50 [3] | Ratio IC50 [4] | IC50 [5] | inhibition [6] | Ratio IC50 [7] | inhibition at 10 µM [8] | inhibition at 10 µM [9] | Ratio IC50 [10] | remaining at 0.5 h, 1 µM [11] | IC50 [12] | inhibition [13] | IC50 [14] | IC50 [15] | inhibition at 10 µM [16] | IC50 [17] | IC50 [18] | IC50 [19] | Ratio IC50 [21] | inhibition [22] | other results |
| --- | --- | --- | --- | --- | --- | --- | --- | --- | --- | --- | --- | --- | --- | --- | --- | --- | --- | --- | --- | --- | --- |
| Fc1cccc(OC(CC2CNC2)c2ccc(Cl)c(F)c2)c1 (stereo unspecified) | 6.4% | 14.6 nM | > 7 | 4000 nM | 100% | > 7 | 11% | 13% | > 7 | 73% | 510 nM | 98% | 210 nM | 35.6 nM | 30% | 36.6 nM | 3100 nM | 13000 nM | > 7 | 100% | IC50 [1]: 1460 nM; inhibition at 10 µM [20]: 11% |
| Fc1cc(C(CC2CNC2)Oc2cccc(Cl)c2)ccc1Cl (stereo unspecified) | 3.3% | 30 nM | > 7 | 530 nM | 100% | > 7 | 4.2% | 7.9% | > 7 | 57% | 600 nM | 87% | 250 nM | 82.5 nM | 40% | 47.1 nM | 1100 nM | 15000 nM | > 7 | 100% | inhibition at 10 µM [20]: 13% |
| Fc1cc(C(CC2CNC2)Oc2ccccc2F)ccc1Cl (stereo unspecified) | 7% | 15.9 nM | > 7 | 8700 nM | 100% | > 7 | 12% | 9.6% | > 7 | 71% | 710 nM | 77% | 250 nM | 63.9 nM | 33% | 46.3 nM | 2200 nM | 44000 nM | > 7 | 100% | IC50 [1]: 1410 nM; inhibition at 10 µM [20]: 7.2% |
| Fc1ccc(OC(CC2CNC2)c2ccc(Cl)c(F)c2)cc1 (stereo unspecified) |  | 32.5 nM | > 7 | 1000 nM | 100% | > 7 |  |  | > 7 | 85% | 400 nM | 72% | 1300 nM | 143 nM |  | 58.1 nM | 2400 nM | 19000 nM | > 7 | 100% |  |
